Patent US4829086A, “Soft β-adrenergic blocking agents” (priority 1985, dated 1989)
Counter-ions that a name gives are not always drawn.

What was measured:
[1] = system: blood pressure response to isoproterenol; assay: Blood pressure response to isoproterenol in rats; format: in vivo, male Spraque-Dawley rats; settings: 6 mg/kg i.p.; 10 minutes after isoproterenol
Excerpt: Initial Drug Screening Protocol. Thirty-two male Spraque-Dawley rats (Blue Spruce Farms) initially weighing 300-450 gm were divided into seven different groups, each for a different drug to be tested: 12(n=4), 14(n=4), 17(n=5), 13(n=4) and 18(n=3), corresponding to the designated compounds 12, 14, 17, 13 and 18 (number of animals), respectively. The other two groups were controls (n=8, isoproterenol alone pretreated with carrier) and those treated with a known β-blocker, dl-propranolol (n=3). Ech animal was anesthetized with sodium pentobarbital (45 mg/kg) and the carotid artery was cannulated with PE-50 tubing. The cannula was subcutaneously threaded around the neck and exteriorized dorsally between the shoulder blades. Th cannula was filled with a heparin solution (300 μg/mL) and sealed with a solid 22 gauge stylet. The animals were housed in individual stainless steel cages, and two days were allowed for recovery from the surgery. Food and water were provided ad libitum. On the day of the experiment, the blood pressure and heart rate of each rat were monitored with a pressure transducer (Narco-Bio model P-1000) and the data recorded on a four-channel physiograph (Narco-Bio systems Marck IV). One hour was allowed as an equilibration period before any drugs were administered. All beta blockers were administered intraperitoneally at a dose of 6 mg/kg. Compounds 12 and 14 and dl-proranolol were dissolved in normal saline while compounds 13, 17 and 18 were dissolved in an ethanol: water solution (3:1). Depending on the trial, controls were administered the appropriate carrier. One hour after administration of the blocker, isoproterenol (Isuprel®, Wintrop Laboratories) was administered subcutaneously at a dose of 25 μg/kg. Blood pressures and heart rate also were recorded 3, 5, 10, 15, 20, 30, 45 and 60 minutes after isoproterenol administration. Both control and experimental animals were unrestrained and free moving in their home cage throughout the experiment. […] However, significant differences in the mean heart rate response amoung the 7 groups were observed: *p<0.005;**p<0.025. Comparisons between groups were made by the Newman-Keuls procedure with significance set at the 95% confidence interval. […] All data are shown as mean±standard error of the mean.
Symbols are the same as those described for FIG. 1. […] Data are shown as mean±standard error of the mean.

[2] = Hydrolytic rate in 0.01 N aqueous sodium hydroxide, pH 12.0; format: physicochemical; settings: pH 12.0, ionic strength 0.10 M (NaCl), 27.3 ± 0.2° C.
Protocol: Analytical Methods. A high pressure liquid chromatography (HPLC) method was developed for the determination of the rate constants. The chromatographic analysis was performed in a system consisting of Waters Associates Model 600-A Solvent Delivery System, Model U-6K Injector and Model 440 Dual Channel Absorbance Detector operated at 254 and 280 nm. A 30 cm×3.9 mm (internal diameter) reverse phase μBondpack C18 column (Waters Associates), operated at ambient temperature, was used for all separations. When plasma samples were analyzed, the column was protected with a 2.3 cm×3.9 mm (internal diameter) Guard Column (Waters) packed with μBondpack C18/Corasil packing material. The mobile phase used for the separation of 17 and its degradation product, 5, consisted of water, 1-hexane sulfonic acid in acetic acid (B-6 reagent, Waters), 0.1M triethanolamine and methanol (100:1:100:799). […] For the separation of compounds 10-16 and 18 and their degradation product 5, a mobile phase consisting of water, 1-hexane sulfonic acid in acetic acid (B-6 reagent, Waters), 0.1M triethanolamine and methanol (390:1:10:599) was used.
Determination of the Hydrolytic Rate Constants in Aqueous Solutions. A 0.01M phosphate buffer and 0.01N sodium hydroxide solution were prepared from freshly distilled deionized water. This ionic strength was maintained at 0.1M with sodium chloride. The pH of the phosphate buffer was determined at 37.0° C. with a pH meter standardized at this temperature. For determination of the hydrolytic rate constants, a fresh concentrated solution of the ester in methanol was added to the hydrolytic medium previously equilibrated to the desired temperature and mixed thoroughly to result in an initial concentration of about 5×10^-4 mol. liter^-1. All reactions were run under pseudo first order conditions. Samples of 25 μL were injected into the column at various time intervals and the pseudo first order rate constants were determined from disappearance of the compound by linear regression of natural logarithm of the peak height versus time plots. The half-life and standard error of the rate constant were calculated for each run.

[3] = system: heart rate response to isoproterenol (β-adrenergic); assay: Cardiovascular experiments in dogs: blockade of isoproterenol heart rate response; format: in vivo, mongrel dogs
Protocol: Method. Healthy, mongrel dogs were anesthetized with a combination of morphine sulfate (2.0 mg/kg, subcutaneously) followed in 20 minutes with pentabarbital sodium (15 mg/kg, intravenously). Supplemental pentabarbital was given as necessary. A femoral vein was catheterized with polyethylene tubing to the level of the heart for injecting drug solutions. A polyethylene tube filled with heparinized saline was inserted through the femoral artery and advanced to the thoracic aorta for the measurement of arterial pressure. The left carotid artery was cannulated with a Millar® transducer-tip catheter for measurement of left ventricular pressure (LVP). The rising slope of the LVP signal was differentiated to give dP/dt, an estimate of myocardial contractility. Heart rate was determined via a Grass cardiotachometer triggered by the R wave of the lead II EKG. All variables were recorded on a Grass polygraph.
Dose-response curves were constructed for each experimental variable to graded i.v. doses of the β-adrenergic agonist, isoproterenol. A period of 3-5 minutes was allowed after each injection for variables to return to base-line. Following this, one of the four experimental β-adrenergic blocking agents was given i.v. over a one-minute period. Abbreviated dose-response curves (2-3 dose points) were again constructed to isoproterenol at 15, 30, 45, 60, 75 and 90 minutes after the administration of the test blockers. Using a 50-beat per minute (bpm) increase in heart rate as criteria, the degree of blockade was determined by dividing the dose of isoproterenol needed to produce a 50 bpm increase at various times following administration of an antagonists by the dose needed for this effect during the control period. The doses of the experimental β-adrenergic antagonists given were determined from previous experiments to produce an approximate two- or four-fold blockade of the heart rate response to isoproterenol.

[4] = 1 mg/kg i.v., 15 minute measurements

Observed pseudo first order hydrolytic rate constant k ([2]; 0.01 N NaOH, ± SEM): 1.56 ± 0.04 × 10^-2 min^-1 | half-life ([2]; 0.01 n naoh, pH 12, 0.01 N NaOH, read-out: Half-life t1/2): 44.4 min
Compound: CC(C)NCC(O)COc1ccc(CC(=O)OC2CC(C)(C)CC(C)(C)C2)cc1 (centres unmarked) [Compound 17, 3,3,5,5-Tetramethylcyclohexyl 4-(2-hydroxy-3-isopropylamino)propoxyphenylacetate oxalate 3/4 hydrate]
mean change in blood pressure at 10 minutes vs compound 18 group [1]: significantly different from the group treated with compound 18 | Duration, Mean (time at which response to isoproterenol had returned to control levels) ([3]; 1 mg/kg i.v.): ~ 70 min | Duration, Range (time at which response to isoproterenol had returned to control levels) ([3]; 1 mg/kg i.v.): 45 to 90 min | Maximal blockade, Mean (time necessary to reach maximal blockade) [3, 4]: 40 min | Maximal blockade, Range (time necessary to reach maximal blockade) [3, 4]: 30 to 60 min | duration of action ([3]; i.v.): much more variable and generally longer
